What was measured:
[1] = tested on: A375 melanoma cells (B-Raf V600E); experiment: A375 cell growth inhibition (ATPlite); format: cell-based; conditions: Homo sapiens, A-375, 72 h; A375, 3 days incubation
Method in brief: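 Cells plated overnight, then exposed 3 days at 37° C to 8-point 1:3 compound dilutions topping at 10 μM final. Viability read as ATPlite luminescence, proportional to cell number; IC50 from luminescence versus concentration.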

A-Raf = biological target: T1, A-Raf (Homo sapiens, UniProt P10398); experiment: A-Raf biochemical kinase inhibition (AlphaScreen, biotin-MEK1 substrate); conditions: 100 μM ATP
T1 sequence (P10398 1-606): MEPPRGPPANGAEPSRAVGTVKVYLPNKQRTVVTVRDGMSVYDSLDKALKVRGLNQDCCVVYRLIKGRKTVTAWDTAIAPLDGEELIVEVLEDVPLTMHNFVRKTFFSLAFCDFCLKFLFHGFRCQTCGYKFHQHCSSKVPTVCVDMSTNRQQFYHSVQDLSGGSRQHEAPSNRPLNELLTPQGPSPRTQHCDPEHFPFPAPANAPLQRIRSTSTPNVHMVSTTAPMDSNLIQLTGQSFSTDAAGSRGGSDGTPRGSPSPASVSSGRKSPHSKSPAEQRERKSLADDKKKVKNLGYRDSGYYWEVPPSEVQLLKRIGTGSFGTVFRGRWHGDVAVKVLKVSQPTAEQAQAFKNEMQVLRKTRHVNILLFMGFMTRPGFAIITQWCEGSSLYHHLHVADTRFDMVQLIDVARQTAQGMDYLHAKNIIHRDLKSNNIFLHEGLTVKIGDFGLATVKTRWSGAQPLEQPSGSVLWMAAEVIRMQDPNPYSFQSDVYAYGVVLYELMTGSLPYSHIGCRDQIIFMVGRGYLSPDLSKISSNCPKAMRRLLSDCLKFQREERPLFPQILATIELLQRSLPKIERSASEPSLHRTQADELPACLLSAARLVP
Method in brief: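 IC50 derived from AlphaScreen signal plotted against compound concentration. Final ATP 100 μM; 3 h incubation at room temperature. Eight-point 3-fold dilution series prepared from a 0.1 mM DMSO stock.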

CYP3A4(BQ) = CYP3A4(BQ) (Homo sapiens, UniProt P08684); experiment: CYP3A4(BQ) inhibition (fluorescent substrate); format: in vitro ADME; conditions: read-out: Cyp IC50 3A4(BQ)
Method in brief: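 Inhibition was followed as loss of fluorescent metabolite from a known substrate, with compound in co-factor mix as a 10-point 1:1 serial dilution (100 mM DMSO stock).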

Sequence of CYP3A4(BQ) (P08684 whole entry): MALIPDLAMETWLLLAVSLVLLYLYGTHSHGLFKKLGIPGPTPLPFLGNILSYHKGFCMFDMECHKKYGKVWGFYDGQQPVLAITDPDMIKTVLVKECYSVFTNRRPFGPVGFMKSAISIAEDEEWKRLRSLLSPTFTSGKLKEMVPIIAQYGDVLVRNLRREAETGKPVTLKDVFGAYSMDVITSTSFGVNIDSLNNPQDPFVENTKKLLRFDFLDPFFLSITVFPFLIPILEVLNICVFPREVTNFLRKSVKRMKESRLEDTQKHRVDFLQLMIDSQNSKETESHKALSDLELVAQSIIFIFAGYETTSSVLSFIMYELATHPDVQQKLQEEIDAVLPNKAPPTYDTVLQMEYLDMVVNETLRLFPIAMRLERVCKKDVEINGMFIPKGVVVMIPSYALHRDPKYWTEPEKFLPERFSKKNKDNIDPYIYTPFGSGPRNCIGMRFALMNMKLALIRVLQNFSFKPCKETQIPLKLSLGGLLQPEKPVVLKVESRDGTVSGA

CCCS(=O)(=O)Nc1ccc(F)c(C(=O)c2c[nH]c3ncc(-c4cnc(N(C)C)nc4)cc23)c1F [P-2196, Propane-1-sulfonic acid {3-[5-(2-dimethylamino-pyrimidin-5-yl)-1H-pyrrolo[2,3-b]pyridine-3-carbonyl]-2,4-difluoro-phenyl}-amide]
IC50 [1]: < 1000 nM
IC50 (A-Raf): < 10 nM
IC50 (CYP3A4(BQ)): > 10000 nM

Cc1cnc2[nH]cc(C(=O)c3c(F)ccc(NS(=O)(=O)c4cccc(F)c4)c3F)c2c1 [P-2016, N-[2,4-Difluoro-3-(5-methyl-1H-pyrrolo[2,3-b]pyridine-3-carbonyl)-phenyl]-3-fluoro-benzenesulfonamide]
IC50 [1]: < 1000 nM
IC50 (A-Raf): < 10 nM
IC50 (CYP3A4(BQ)): 5000 to 10000 nM

N#Cc1cnc2[nH]cc(C(=O)c3c(F)ccc(NS(=O)(=O)c4ccccc4F)c3F)c2c1 [P-2011, N-[3-(5-Cyano-1H-pyrrolo[2,3-b]pyridine-3-carbonyl)-2,4-difluoro-phenyl]-2-fluoro-benzenesulfonamide]
IC50 [1]: < 1000 nM
IC50 (A-Raf): < 10 nM
IC50 (CYP3A4(BQ)): > 10000 nM

CCCS(=O)(=O)Nc1ccc(F)c(C(=O)c2c[nH]c3ncc(-c4ccc(OCCCN5CCOCC5)nc4)cc23)c1F [P-2236, Propane-1-sulfonic acid (2,4-difluoro-3-{5-[6-(3-morpholin-4-yl-propoxy)-pyridin-3-yl]-1H-pyrrolo[2,3-b]pyridine-3-carbonyl}-phenyl)-amide]
IC50 [1]: < 100 nM
IC50 (A-Raf): < 10 nM
IC50 (CYP3A4(BQ)): 5000 to 10000 nM

— patent US8198273B2, “Compounds and methods for kinase modulation, and indications therefor” (Plexxikon Inc., priority 2009, dated 2012)
